Test results from US6420131B1, “Use of fluorescein aryl ethers in high throughput cytochrome P450 inhibition assays” (Gentest Corporation, priority 1999, dated 2002).
Each block holds one compound with its values, some of them ahead of it.

Assays:
Rat CYP2C12 = target: T1, Rat CYP2C12 (Rattus norvegicus, UniProt P11510); assay: Turnover of fluorometric substrates by rat CYP2C12; settings: substrate uM: Ia 2, AMMC 20, CEC 40, MFC 50, BFC 50, BQ 40, BzRes 50; 30 min; enzyme 50 nM
T1 sequence (P11510 1-490): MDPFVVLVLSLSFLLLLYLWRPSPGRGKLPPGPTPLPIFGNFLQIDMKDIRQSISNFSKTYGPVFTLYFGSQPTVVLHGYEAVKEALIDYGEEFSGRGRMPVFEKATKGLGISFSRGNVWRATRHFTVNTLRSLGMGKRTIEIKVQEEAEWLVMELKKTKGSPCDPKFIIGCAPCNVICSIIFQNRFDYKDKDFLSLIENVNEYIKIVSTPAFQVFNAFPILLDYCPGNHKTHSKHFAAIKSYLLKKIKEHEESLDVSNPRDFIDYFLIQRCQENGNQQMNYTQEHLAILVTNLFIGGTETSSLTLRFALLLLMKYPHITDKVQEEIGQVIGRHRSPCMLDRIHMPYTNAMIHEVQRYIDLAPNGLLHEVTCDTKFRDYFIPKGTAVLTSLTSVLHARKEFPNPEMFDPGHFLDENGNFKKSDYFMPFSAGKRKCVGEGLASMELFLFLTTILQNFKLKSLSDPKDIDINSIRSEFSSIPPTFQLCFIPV

Rat CYP2E1 = Rat CYP2E1 (Rattus norvegicus, UniProt P05182); assay: Turnover of fluorometric substrates by rat CYP2E1; settings: substrate uM: Ia 2, AMMC 20, CEC 40, MFC 50, BFC 50, BQ 40, BzRes 50; 30 min; enzyme 87 nM, lymphoblastoid microsomes
Rat CYP2E1, sequence (P05182 whole entry): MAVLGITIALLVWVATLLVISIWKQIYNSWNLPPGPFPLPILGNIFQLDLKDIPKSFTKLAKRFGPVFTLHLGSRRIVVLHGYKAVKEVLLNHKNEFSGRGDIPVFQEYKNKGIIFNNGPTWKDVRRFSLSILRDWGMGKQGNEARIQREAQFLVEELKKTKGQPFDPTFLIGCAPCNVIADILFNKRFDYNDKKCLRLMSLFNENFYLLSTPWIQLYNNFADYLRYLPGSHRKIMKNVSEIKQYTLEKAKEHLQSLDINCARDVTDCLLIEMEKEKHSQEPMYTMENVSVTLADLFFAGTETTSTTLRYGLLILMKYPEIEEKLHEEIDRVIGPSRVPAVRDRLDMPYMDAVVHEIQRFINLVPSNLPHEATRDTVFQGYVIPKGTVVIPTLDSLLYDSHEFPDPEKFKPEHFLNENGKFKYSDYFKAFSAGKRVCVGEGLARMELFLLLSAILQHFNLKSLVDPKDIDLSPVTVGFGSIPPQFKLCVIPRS

human CYP3A4 = human CYP3A4 (Homo sapiens, UniProt P08684); assay: Enzyme kinetics of substrate turnover by cDNA-expressed CYP3A4; type: biochemical; design: purchased GENTEST Corporation P202; host or cells: baculovirus/insect cells (microsomes, SUPERSOMES); settings: for Vmax: CYP3A4
human CYP3A4, sequence (P08684 whole entry): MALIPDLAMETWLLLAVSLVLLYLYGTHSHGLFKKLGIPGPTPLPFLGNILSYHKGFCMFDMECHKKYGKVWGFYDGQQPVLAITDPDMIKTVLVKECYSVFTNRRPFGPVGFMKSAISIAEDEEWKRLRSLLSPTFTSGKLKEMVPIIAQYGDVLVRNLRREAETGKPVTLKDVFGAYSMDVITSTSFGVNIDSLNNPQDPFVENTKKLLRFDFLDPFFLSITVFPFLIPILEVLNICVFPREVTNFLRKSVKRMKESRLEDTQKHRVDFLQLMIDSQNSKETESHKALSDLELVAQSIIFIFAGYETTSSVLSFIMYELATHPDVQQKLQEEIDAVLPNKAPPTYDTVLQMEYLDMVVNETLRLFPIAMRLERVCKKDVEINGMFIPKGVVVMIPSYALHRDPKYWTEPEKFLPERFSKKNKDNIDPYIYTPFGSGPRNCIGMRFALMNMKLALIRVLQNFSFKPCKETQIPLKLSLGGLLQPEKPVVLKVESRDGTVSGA
Description: The evaluation of compounds of Formula I were performed by measuring the kinetics of turnover using cDNA-expressed cytochromes P450 CYP3A4 and CYP2C8. Vmax and Km values are important for the optimization of the assay conditions and for setting the parameters for inhibition experiments.
Example Compound Ia. […] Final incubation volume was 0.2 ml. […] The activity was quantitated by comparing to a standard curve of fluorescein. Apparent Km and Vmax values were calculated by non-linear regression using SigmaPlot software.

[1] = target: T2, panel of Human P450 enzymes (Homo sapiens, UniProt P04798); assay: Substrate specificity, dealkylation of Compounds Ia and Ib by a panel of human P450 enzymes; type: biochemical; settings: CYP1A1
T2 construct: purchased GENTEST Corporation; host or cells: baculovirus/insect cells (microsomes, SUPERSOMES)
T2 sequence (P04798 1-512): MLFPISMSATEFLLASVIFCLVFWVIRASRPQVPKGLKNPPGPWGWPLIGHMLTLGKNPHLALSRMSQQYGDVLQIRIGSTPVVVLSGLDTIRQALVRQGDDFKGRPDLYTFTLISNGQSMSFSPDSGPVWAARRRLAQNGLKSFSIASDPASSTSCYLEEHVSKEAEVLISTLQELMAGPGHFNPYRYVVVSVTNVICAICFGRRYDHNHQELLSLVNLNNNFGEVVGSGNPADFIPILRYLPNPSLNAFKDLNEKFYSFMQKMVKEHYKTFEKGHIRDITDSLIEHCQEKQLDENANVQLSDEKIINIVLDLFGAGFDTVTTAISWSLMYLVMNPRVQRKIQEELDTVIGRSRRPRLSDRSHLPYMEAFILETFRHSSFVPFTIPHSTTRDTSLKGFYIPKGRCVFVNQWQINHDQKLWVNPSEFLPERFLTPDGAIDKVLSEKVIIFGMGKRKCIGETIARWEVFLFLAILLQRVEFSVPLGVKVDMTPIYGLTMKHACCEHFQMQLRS
Description: (§1) The specificity of several cytochrome P450 enzymes for the dealkylation of Compound Ia (FIG. 1) and Compound Ib (FIG. 2) was examined.
(§2) Example Compounds Ia and Ib. […] Final incubation volume was 0.2 ml.

[2] = target: T3, panel of Human P450 enzymes (Homo sapiens, UniProt P10632); assay: as above; type: biochemical; settings: CYP2C8
T3 construct: purchased GENTEST Corporation; host or cells: baculovirus/insect cells (microsomes, SUPERSOMES)
T3 sequence (P10632 1-490): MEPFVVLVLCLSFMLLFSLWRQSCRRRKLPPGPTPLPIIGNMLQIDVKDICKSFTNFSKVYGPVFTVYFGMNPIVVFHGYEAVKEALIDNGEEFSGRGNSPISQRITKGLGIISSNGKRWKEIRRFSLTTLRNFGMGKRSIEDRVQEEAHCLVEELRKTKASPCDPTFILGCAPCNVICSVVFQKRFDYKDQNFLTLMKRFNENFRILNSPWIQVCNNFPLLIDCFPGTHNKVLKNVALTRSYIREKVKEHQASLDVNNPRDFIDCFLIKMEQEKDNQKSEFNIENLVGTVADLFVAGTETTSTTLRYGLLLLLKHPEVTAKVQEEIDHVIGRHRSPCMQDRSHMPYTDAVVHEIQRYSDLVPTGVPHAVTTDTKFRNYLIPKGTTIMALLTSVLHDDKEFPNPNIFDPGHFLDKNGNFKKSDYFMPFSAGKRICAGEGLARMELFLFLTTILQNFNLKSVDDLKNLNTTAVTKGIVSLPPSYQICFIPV
Description: as §1, §2

[3] = system: panel of Human P450 enzymes; assay: as above; type: biochemical; settings: CYP2C9*1, CYP2C19, members of the CYP3A family
Description: as §1, §2

SMILES: COc1ccc2c(C(F)(F)F)cc(=O)oc2c1 [MFC, 7-Methoxy-4-trifluoromethylcoumarin]
Turnover Numbers, CYP2E1 (Rat CYP2E1): 2.11 pmol product/min/pmol enzyme
Turnover Numbers, CYP2C12 (Rat CYP2C12): 0.24 pmol product/min/pmol enzyme

SMILES: CCOc1ccc2cc(C#N)c(=O)oc2c1 [CEC, 7-Ethoxy-3-cyanocoumarin]
Turnover Numbers, CYP2E1 (Rat CYP2E1): 0.10 pmol product/min/pmol enzyme

SMILES: O=c1ccc2nc3ccc(OCc4ccccc4)cc3oc-2c1 [BzRes, 7-benzyloxyresorufin]
Vmax (human CYP3A4): 2.3 ± 0.2
Km (human CYP3A4; CYP3A4, apparent Km): 30 ± 7 µM

Now from value to compound:

Turnover Numbers, CYP2C12 (Rat CYP2C12): 1.5 pmol product/min/pmol enzyme
SMILES: c1ccc(COc2ccc3cccnc3c2)cc1 [BQ, 7-Benzyloxyquinoline]

dealkylation activity [1]: highest activity
dealkylation activity [2]: substantial enzyme activity
dealkylation activity [3]: catalyzed the dealkylation
Vmax (human CYP3A4): 22 ± 0.98
SMILES: O=C(OCc1ccccc1)c1ccccc1-c1c2ccc(=O)cc-2oc2cc(OCc3ccccc3)ccc12 [Compound Ia, O-Benzylfluorescein Benzyl Ester]
